Literature values in patent publication US7329656B2, “Arylthiobenzylpiperidine derivatives” (H. Lundbeck A/S, priority 2004, dated 2008).
Read-outs that look alike come from different tables or passages of the source.

Key:
rat [1] = conditions: rat forced-swim
rat [2] = conditions: rat social interaction
guinea pig = guinea pig maternal-separation vocalization

## COCC1=C(C(=O)OC)[C@H](c2ccc(F)c(F)c2)N(C(=O)NCCCN2CCC(c3cccc(NC(C)=O)c3)CC2)C(=O)N1 [SNAP-7941]
Rat [1]
  behavioral profile in model of depression and/or anxiety: profile similar to clinically used anti-depressants and anxiolytics
Rat [2]
  behavioral profile in model of depression and/or anxiety: profile similar to clinically used anti-depressants and anxiolytics
Guinea pig
  behavioral profile in model of depression and/or anxiety: profile similar to clinically used anti-depressants and anxiolytics
